According to PMC5578959, “Selective LRRK2 kinase inhibition reduces phosphorylation of endogenous Rab10 and Rab12 in human peripheral mononuclear blood cells” (Scientific Reports, 2017):

Tests used:
Experiment in all cases: KiNativ profiling in human PBMCs
Type in all cases: binding
[1] = tested on: T1, STLK6
T1 construct: purchased ActivX Technologies (KiNativ)
How it was run: (§1)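 Compound was applied to living PBMCs at 0.1 µM or 1 µM. Occupancy of kinases was then assessed by KiNativ.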

[2] = tested on: T2, KHS1; settings: Lys1
T2 construct: purchased ActivX Technologies (KiNativ)
How it was run: as §1

[3] = tested on: T3, ZAP70
T3 construct: purchased ActivX Technologies (KiNativ)
How it was run: as §1

[4] = tested on: T4, MLK3
T4 construct: purchased ActivX Technologies (KiNativ)
How it was run: as §1

[5] = tested on: T5, NEK7; settings: Lys1
T5 construct: purchased ActivX Technologies (KiNativ)
How it was run: as §1

[6] = tested on: T6, GPRK6; settings: Lys2
T6 construct: purchased ActivX Technologies (KiNativ)
How it was run: as §1

[7] = tested on: MARK2,MARK3; settings: Lys2
How it was run: as §1

[8] = tested on: T7, LYN
T7 construct: purchased ActivX Technologies (KiNativ)
How it was run: as §1

[9] = tested on: T8, MARK2; settings: Lys1
T8 construct: purchased ActivX Technologies (KiNativ)
How it was run: as §1

[10] = tested on: T9, MAP3K1; settings: Lys2
T9 construct: purchased ActivX Technologies (KiNativ)
How it was run: as §1

[11] = tested on: T10, NEK9
T10 construct: purchased ActivX Technologies (KiNativ)
How it was run: as §1

[12] = tested on: T11, ZAK; settings: Lys1
T11 construct: purchased ActivX Technologies (KiNativ)
How it was run: as §1

[13] = tested on: T12, NDR2
T12 construct: purchased ActivX Technologies (KiNativ)
How it was run: as §1

[14] = tested on: T13, eEF2K; settings: ATP
T13 construct: purchased ActivX Technologies (KiNativ)
How it was run: as §1

[15] = tested on: T14, MSK1 domain1; settings: Lys2
T14 construct: MSK1 domain1; purchased ActivX Technologies (KiNativ)
How it was run: as §1

[16] = tested on: T15, PKN1
T15 construct: purchased ActivX Technologies (KiNativ)
How it was run: as §1

[17] = tested on: Wnk1,Wnk2; settings: ATP Loop
How it was run: as §1

[18] = tested on: T16, CaMK1d
T16 construct: purchased ActivX Technologies (KiNativ)
How it was run: as §1

Compound: Cn1cc(-c2c[nH]c3ncnc(N4CCOCC4)c23)cc1C#N [PFE-360]
- % Inhibition ([1]; 0.1µM, Lys1): -3.3%
- % Inhibition ([1]; 0.1µM, Lys2): 11.8%
- % Inhibition ([1]; 1µM, Lys1): -20.6%
- % Inhibition ([1]; 1µM, Lys2): -10.2%
- % Inhibition ([2]; 0.1µM): 1.1%
- % Inhibition ([2]; 1µM): -9.3%
- % Inhibition ([3]; 0.1µM, Activation Loop): -0.7%
- % Inhibition ([3]; 0.1µM, Lys1): 0.4%
- % Inhibition ([3]; 1µM, Activation Loop): -9.8%
- % Inhibition ([3]; 1µM, Lys1): -5.9%
- % Inhibition ([4]; 0.1µM, Lys1): 5%
- % Inhibition ([4]; 0.1µM, Lys2): -4.6%
- % Inhibition ([4]; 1µM, Lys1): -5.6%
- % Inhibition ([4]; 1µM, Lys2): 10.2%
- % Inhibition ([5]; 0.1µM): 2.8%
- % Inhibition ([5]; 1µM): 11.7%
- % Inhibition ([6]; 0.1µM): 5.7%
- % Inhibition ([6]; 1µM): 0.4%
- % Inhibition ([7]; 0.1µM): -16.2%
- % Inhibition ([7]; 1µM): 16.7%
- % Inhibition ([8]; 0.1µM, Activation Loop): 7.3%
- % Inhibition ([8]; 0.1µM, Lys1): -30.4%
- % Inhibition ([8]; 1µM, Activation Loop): 7.8%
- % Inhibition ([8]; 1µM, Lys1): 7.4%
- % Inhibition ([9]; 0.1µM): -8.9%
- % Inhibition ([9]; 1µM): 2.3%
- % Inhibition ([10]; 0.1µM): 7%
- % Inhibition ([10]; 1µM): -26.4%
- % Inhibition ([11]; 0.1µM, Lys1): -10.6%
- % Inhibition ([11]; 0.1µM, Lys2): 8.9%
- % Inhibition ([11]; 1µM, Lys1): -19.6%
- % Inhibition ([11]; 1µM, Lys2): 5.7%
- % Inhibition ([12]; 0.1µM): -12.2%
- % Inhibition ([12]; 1µM): -10.2%
- % Inhibition ([13]; 0.1µM, Lys1): -18.6%
- % Inhibition ([13]; 0.1µM, Lys2): 2.7%
- % Inhibition ([13]; 1µM, Lys1): -5.5%
- % Inhibition ([13]; 1µM, Lys2): -8.1%
- % Inhibition ([14]; 0.1µM): 15.7%
- % Inhibition ([14]; 1µM): -1.8%
- % Inhibition ([15]; 0.1µM): -7.8%
- % Inhibition ([15]; 1µM): -5.1%
- % Inhibition ([16]; 0.1µM, Lys1): -4.7%
- % Inhibition ([16]; 0.1µM, Lys2): -3.5%
- % Inhibition ([16]; 1µM, Lys1): -10.8%
- % Inhibition ([16]; 1µM, Lys2): -25.9%
- % Inhibition ([17]; 0.1µM): -5.4%
- % Inhibition ([17]; 1µM): -15.3%
- % Inhibition ([18]; 0.1µM, Lys1): 8%
- % Inhibition ([18]; 0.1µM, Lys2): 6.4%
- % Inhibition ([18]; 1µM, Lys1): -1.5%
- % Inhibition ([18]; 1µM, Lys2): 20.2%
